# Reference: PMC5218480 (PLoS ONE, 2017)
# Test system: MV-4-11 cells
# Assay: Gene expression microarray analysis (Affymetrix PrimeView) and GSEA
# Format: cell-based, human
# Parameters: RFU PODN (11730768_x_at) / Fold change /veh PODN (11730768_x_at) / RFU LINC00158 (11744669_a_at) / Fold change /veh LINC00158 (11744669_a_at) / RFU DUSP10 (11751237_a_at) / Fold change /veh DUSP10 (11751237_a_at) / RFU ID3 (11757404_x_at) / Fold change /veh ID3 (11757404_x_at) / RFU PLEKHG5 (11737974_s_at) / Fold change /veh PLEKHG5 (11737974_s_at) / RFU LRRC4B (11730491_at) / Fold change /veh LRRC4B (11730491_at) / RFU GIMAP4 (11747438_a_at) / Fold change /veh GIMAP4 (11747438_a_at) / RFU KRT8 (11758183_x_at) / Fold change /veh KRT8 (11758183_x_at) / RFU CNN1 (11734310_a_at) / Fold change /veh CNN1 (11734310_a_at) / RFU VPS37D (11726825_at) / Fold change /veh VPS37D (11726825_at) / RFU C10orf10 (11716522_x_at) / Fold change /veh C10orf10 (11716522_x_at) / RFU KIR2DL2 /// KIR2DL4 /// KIR2DL5A /// KIR2DL5B /// KIR2DS1 /// KIR2DS2 /// KIR2DS3 /// KIR2DS4 /// KIR3DL3 /// KIR3DL3 /// KIR3DS1 (11738374_at) / Fold change /veh KIR2DL2 /// KIR2DL4 /// KIR2DL5A /// KIR2DL5B /// KIR2DS1 /// KIR2DS2 /// KIR2DS3 /// KIR2DS4 /// KIR3DL3 /// KIR3DL3 /// KIR3DS1 (11738374_at) / RFU C1QL1 (11718748_at) / Fold change /veh C1QL1 (11718748_at) / RFU TMPRSS4 (11747572_a_at) / Fold change /veh TMPRSS4 (11747572_a_at) / RFU HAMP (11756126_x_at) / Fold change /veh HAMP (11756126_x_at) / RFU RNFT2 (11725882_a_at) / Fold change /veh RNFT2 (11725882_a_at) / RFU NR4A2 (11747474_a_at) / Fold change /veh NR4A2 (11747474_a_at) / RFU ABCC12 (11746883_a_at) / Fold change /veh ABCC12 (11746883_a_at) / RFU TMEM136 (11760407_x_at) / Fold change /veh TMEM136 (11760407_x_at) / RFU CLDN22 /// WWC2 (11732394_at) / Fold change /veh CLDN22 /// WWC2 (11732394_at) / RFU HLA-DPB1 (11760878_x_at) / Fold change /veh HLA-DPB1 (11760878_x_at) / RFU SPINT1 (11716480_a_at) / Fold change /veh SPINT1 (11716480_a_at) / RFU GAP43 (11754022_s_at) / Fold change /veh GAP43 (11754022_s_at) / RFU A4GNT (11735810_at) / Fold change /veh A4GNT (11735810_at) / RFU PRB3 (11715151_x_at) / Fold change /veh PRB3 (11715151_x_at) / RFU TUBB4B (11761932_at) / Fold change /veh TUBB4B (11761932_at) / RFU CAPN14 (11732068_a_at) / Fold change /veh CAPN14 (11732068_a_at) / RFU TMCC2 (11721928_a_at) / Fold change /veh TMCC2 (11721928_a_at) / RFU IRGQ (11745062_a_at) / Fold change /veh IRGQ (11745062_a_at) / RFU FAM174B (11720279_a_at) / Fold change /veh FAM174B (11720279_a_at) / RFU TMPRSS4 (11748680_a_at) / Fold change /veh TMPRSS4 (11748680_a_at) / RFU FAM212B (11763350_a_at) / Fold change /veh FAM212B (11763350_a_at) / RFU PLEKHG5 (11743358_a_at) / Fold change /veh PLEKHG5 (11743358_a_at) / RFU ZSCAN30 (11745921_a_at) / Fold change /veh ZSCAN30 (11745921_a_at) / RFU CMKLR1 (11741424_a_at) / Fold change /veh CMKLR1 (11741424_a_at) / RFU LOC101060620 /// MAPK8IP1 (11723275_at) / Fold change /veh LOC101060620 /// MAPK8IP1 (11723275_at) / RFU SPTSSB (11747773_x_at) / Fold change /veh SPTSSB (11747773_x_at) / RFU PRSS12 (11739890_at) / Fold change /veh PRSS12 (11739890_at) / RFU BIN1 (11741810_x_at) / Fold change /veh BIN1 (11741810_x_at) / RFU WNT11 (11732464_a_at) / Fold change /veh WNT11 (11732464_a_at) / RFU C10orf10 (11716521_a_at) / Fold change /veh C10orf10 (11716521_a_at) / RFU C5orf56 (11738089_at) / Fold change /veh C5orf56 (11738089_at) / RFU CYB561 (11721691_x_at) / Fold change /veh CYB561 (11721691_x_at) / RFU ANKRD19P (11752326_a_at) / Fold change /veh ANKRD19P (11752326_a_at) / RFU OR2T12 /// OR2T33 /// OR2T8 (11738714_s_at) / Fold change /veh OR2T12 /// OR2T33 /// OR2T8 (11738714_s_at) / RFU VCAN (11748164_a_at) / Fold change /veh VCAN (11748164_a_at) / RFU JSRP1 (11732532_at) / Fold change /veh JSRP1 (11732532_at) / RFU KRTAP10-11 (11738290_x_at) / Fold change /veh KRTAP10-11 (11738290_x_at) / RFU MYO3A (11730013_a_at) / Fold change /veh MYO3A (11730013_a_at) / RFU EBF3 (11725865_a_at) / Fold change /veh EBF3 (11725865_a_at) / RFU CAMK2N1 (11719241_x_at) / Fold change /veh CAMK2N1 (11719241_x_at) / RFU C5orf56 (11738088_a_at) / Fold change /veh C5orf56 (11738088_a_at) / RFU OLFML3 (11715873_a_at) / Fold change /veh OLFML3 (11715873_a_at) / RFU LOC100653217 /// NTM (11731650_a_at) / Fold change /veh LOC100653217 /// NTM (11731650_a_at) / RFU MAPK11 (11762145_a_at) / Fold change /veh MAPK11 (11762145_a_at) / RFU FIZ1 (11724087_x_at) / Fold change /veh FIZ1 (11724087_x_at) / RFU OASL (11726364_x_at) / Fold change /veh OASL (11726364_x_at) / RFU SOX15 (11748057_x_at) / Fold change /veh SOX15 (11748057_x_at) / RFU CD79A (11719716_a_at) / Fold change /veh CD79A (11719716_a_at) / RFU HIST1H1D (11736915_at) / Fold change /veh HIST1H1D (11736915_at) / RFU CASKIN2 (11723855_a_at) / Fold change /veh CASKIN2 (11723855_a_at) / RFU LOC730098 (11760151_x_at) / Fold change /veh LOC730098 (11760151_x_at) / RFU OR4N2 (11742367_at) / Fold change /veh OR4N2 (11742367_at) / RFU PRRT2 (11749266_a_at) / Fold change /veh PRRT2 (11749266_a_at) / RFU SNX32 (11753110_a_at) / Fold change /veh SNX32 (11753110_a_at) / RFU CDHR5 (11726645_a_at) / Fold change /veh CDHR5 (11726645_a_at) / RFU RCAN1 (11760418_a_at) / Fold change /veh RCAN1 (11760418_a_at) / RFU FAM167A (11723789_a_at) / Fold change /veh FAM167A (11723789_a_at) / RFU FAM26E (11764081_at) / Fold change /veh FAM26E (11764081_at) / RFU ISYNA1 (11749810_s_at) / Fold change /veh ISYNA1 (11749810_s_at) / RFU ACY1 (11761880_at) / Fold change /veh ACY1 (11761880_at) / RFU 11764098_at / Fold change /veh 11764098_at / RFU SAMD14 (11745864_x_at) / Fold change /veh SAMD14 (11745864_x_at) / RFU NPB (11741838_a_at) / Fold change /veh NPB (11741838_a_at) / RFU TMPRSS6 (11731388_a_at) / Fold change /veh TMPRSS6 (11731388_a_at) / RFU KRTAP10-2 (11738614_at) / Fold change /veh KRTAP10-2 (11738614_at) / RFU ARHGAP8 /// PRR5-ARHGAP8 (11727945_x_at) / Fold change /veh ARHGAP8 /// PRR5-ARHGAP8 (11727945_x_at) / RFU KRTAP5-7 /// NADSYN1 (11734609_at) / Fold change /veh KRTAP5-7 /// NADSYN1 (11734609_at) / RFU RASL12 (11751679_a_at) / Fold change /veh RASL12 (11751679_a_at) / RFU CDKN2B (11736163_a_at) / Fold change /veh CDKN2B (11736163_a_at) / RFU PRF1 (11729649_at) / Fold change /veh PRF1 (11729649_at) / RFU, ZNF638 /// ZNF638-IT1 / Fold change vs veh, ZNF638 /// ZNF638-IT1 / RFU, PANK3 / Fold change vs veh, PANK3 / RFU, SH3YL1 / Fold change vs veh, SH3YL1 / RFU, ZEB2 / Fold change vs veh, ZEB2 / RFU, NRIP1 / Fold change vs veh, NRIP1 / RFU, PTTG1IP / Fold change vs veh, PTTG1IP / RFU, CAPN2 / Fold change vs veh, CAPN2 / RFU, MED14 / Fold change vs veh, MED14 / RFU, SNORA58 / Fold change vs veh, SNORA58 / RFU, C1orf63 / Fold change vs veh, C1orf63 / RFU, LRRFIP1 / Fold change vs veh, LRRFIP1 / RFU, NDUFAF7 / Fold change vs veh, NDUFAF7 / RFU, SLC12A2 / Fold change vs veh, SLC12A2 / RFU, IBTK / Fold change vs veh, IBTK / RFU, ESF1 / Fold change vs veh, ESF1 / Fold change vs veh, TMEM50B / RFU, TAOK1 / Fold change vs veh, TAOK1 / RFU, ACBD3 / Fold change vs veh, ACBD3 / RFU, TMA16 / Fold change vs veh, TMA16 / RFU, RWDD3 / Fold change vs veh, RWDD3 / RFU, BCAT1 / Fold change vs veh, BCAT1 / RFU, EDEM3 / Fold change vs veh, EDEM3 / RFU, TMEM33 / Fold change vs veh, TMEM33 / RFU, WDR75 / Fold change vs veh, WDR75 / RFU, AHCTF1 / Fold change vs veh, AHCTF1 / RFU, TFRC / Fold change vs veh, TFRC / RFU, ZDHHC17 / Fold change vs veh, ZDHHC17 / RFU, NOM1 / Fold change vs veh, NOM1 / RFU, ARL8B / Fold change vs veh, ARL8B / RFU, ZBTB11 / Fold change vs veh, ZBTB11 / RFU, TAMM41 / Fold change vs veh, TAMM41 / RFU, KIAA1704 /// LOC100996395 / Fold change vs veh, KIAA1704 /// LOC100996395 / RFU, ING1 / Fold change vs veh, ING1 / RFU, TRMT61B / Fold change vs veh, TRMT61B / RFU, FUBP3 / Fold change vs veh, FUBP3 / RFU, TP53 / Fold change vs veh, TP53 / RFU, TNKS2 / Fold change vs veh, TNKS2 / RFU, ZFP14 / Fold change vs veh, ZFP14 / RFU, ACTR2 / Fold change vs veh, ACTR2 / RFU, PPP3R1 / Fold change vs veh, PPP3R1 / RFU, PIK3R1 / Fold change vs veh, PIK3R1 / RFU, HNRNPA1 / Fold change vs veh, HNRNPA1 / RFU, RNF170 / Fold change vs veh, RNF170 / RFU, ZNF28 / Fold change vs veh, ZNF28 / RFU, RNGTT / Fold change vs veh, RNGTT / RFU, OGT / Fold change vs veh, OGT / RFU, BRD1 / Fold change vs veh, BRD1 / RFU, MARS / Fold change vs veh, MARS / RFU, ZNF655 / Fold change vs veh, ZNF655 / RFU, FAHD1 / Fold change vs veh, FAHD1 / RFU, BDP1 / Fold change vs veh, BDP1 / RFU, LRRCC1 / Fold change vs veh, LRRCC1 / RFU, ARID1A / Fold change vs veh, ARID1A / RFU, ZNF146 / Fold change vs veh, ZNF146 / RFU, ZNF330 / Fold change vs veh, ZNF330 / RFU, GPN3 / Fold change vs veh, GPN3 / RFU, C9orf123 / Fold change vs veh, C9orf123 / RFU, N4BP2L2 / Fold change vs veh, N4BP2L2 / RFU, ARFIP1 / Fold change vs veh, ARFIP1 / RFU, FAM179B / Fold change vs veh, FAM179B / RFU, BCL10 / Fold change vs veh, BCL10 / RFU, UHRF1BP1L / Fold change vs veh, UHRF1BP1L / RFU, BET1 / Fold change vs veh, BET1 / RFU, CNOT2 / Fold change vs veh, CNOT2 / RFU, ZNF268 / Fold change vs veh, ZNF268 / Fold change vs veh, ZNF507 / RFU, DGCR2 / Fold change vs veh, DGCR2 / RFU, WDSUB1 / Fold change vs veh, WDSUB1 / Fold change vs veh, HSP90B1 /// MIR3652 / RFU, ADSS / Fold change vs veh, ADSS / RFU, GK / Fold change vs veh, GK / RFU, ZNF148 / Fold change vs veh, ZNF148 / RFU, TAF9 / Fold change vs veh, TAF9 / RFU, SLC1A5 / Fold change vs veh, SLC1A5 / RFU, SLMO2 / Fold change vs veh, SLMO2 / RFU, ABCC4 / Fold change vs veh, ABCC4 / RFU, LOC101060439 /// RAP1B / Fold change vs veh, LOC101060439 /// RAP1B / RFU, RFX7 / Fold change vs veh, RFX7 / RFU, GTPBP10 / Fold change vs veh, GTPBP10 / RFU, CNEP1R1 / Fold change vs veh, CNEP1R1 / RFU, BIVM-ERCC5 /// ERCC5 / Fold change vs veh, BIVM-ERCC5 /// ERCC5 / RFU, ILF3 / Fold change vs veh, ILF3 / RFU 11762660_at / Fold change /veh 11762660_at / RFU VCAN (11757783_s_at) / Fold change /veh VCAN (11757783_s_at) / RFU DDX43 (11728927_at) / Fold change /veh DDX43 (11728927_at) / RFU KRT8 (11758188_x_at) / Fold change /veh KRT8 (11758188_x_at) / RFU NKD1 (11759106_at) / Fold change /veh NKD1 (11759106_at) / RFU SRD5A1 (11742802_a_at) / Fold change /veh SRD5A1 (11742802_a_at) / RFU TPSAB1 /// TPSB2 (11721975_s_at) / Fold change /veh TPSAB1 /// TPSB2 (11721975_s_at) / RFU GSTM3 (11746129_a_at) / Fold change /veh GSTM3 (11746129_a_at) / RFU IL23R (11737362_x_at) / Fold change /veh IL23R (11737362_x_at) / RFU TMEM51 (11727254_a_at) / Fold change /veh TMEM51 (11727254_a_at) / RFU PIWIL2 (11732686_x_at) / Fold change /veh PIWIL2 (11732686_x_at) / RFU ORM1 (11744905_x_at) / Fold change /veh ORM1 (11744905_x_at) / RFU CCDC152 (11743942_at) / Fold change /veh CCDC152 (11743942_at) / RFU ECM1 (11717891_a_at) / Fold change /veh ECM1 (11717891_a_at) / RFU IL23R (11748794_a_at) / Fold change /veh IL23R (11748794_a_at) / RFU TNFAIP8L3 (11732012_x_at) / Fold change /veh TNFAIP8L3 (11732012_x_at) / RFU MBOAT4 (11741988_at) / Fold change /veh MBOAT4 (11741988_at) / RFU 11764193_at / Fold change /veh 11764193_at / RFU TMEM53 (11763286_at) / Fold change /veh TMEM53 (11763286_at) / RFU MAGEB2 (11727129_at) / Fold change /veh MAGEB2 (11727129_at) / RFU TMEM200A (11744735_a_at) / Fold change /veh TMEM200A (11744735_a_at) / RFU CCDC152 (11751479_a_at) / Fold change /veh CCDC152 (11751479_a_at) / RFU FAM211A (11726209_a_at) / Fold change /veh FAM211A (11726209_a_at) / RFU RGS16 (11746705_a_at) / Fold change /veh RGS16 (11746705_a_at) / RFU VCAN (11755009_s_at) / Fold change /veh VCAN (11755009_s_at) / RFU RHOB (11743442_s_at) / Fold change /veh RHOB (11743442_s_at) / RFU RGS16 (11720943_a_at) / Fold change /veh RGS16 (11720943_a_at) / RFU RGS16 (11720944_at) / Fold change /veh RGS16 (11720944_at) / RFU, VPS4B / Fold change vs veh, VPS4B / RFU, CREB1 / Fold change vs veh, CREB1 / RFU, DNAJC13 / Fold change vs veh, DNAJC13 / RFU, GNAQ / Fold change vs veh, GNAQ / RFU, CDK5R1 / Fold change vs veh, CDK5R1 / RFU, ZRANB3 / Fold change vs veh, ZRANB3 / RFU, CUL4A / Fold change vs veh, CUL4A / RFU, CCNY / Fold change vs veh, CCNY / RFU, UFL1 / Fold change vs veh, UFL1 / RFU, COG3 / Fold change vs veh, COG3 / RFU, DIAPH2 / Fold change vs veh, DIAPH2 / RFU, SKA2 / Fold change vs veh, SKA2 / RFU, AFF3 / Fold change vs veh, AFF3 / RFU, LMF1 / Fold change vs veh, LMF1 / RFU, IPO11 / Fold change vs veh, IPO11 / RFU, DFFB / Fold change vs veh, DFFB / RFU, FOXP1 / Fold change vs veh, FOXP1 / RFU, CARD8 / Fold change vs veh, CARD8 / RFU, STRN3 / Fold change vs veh, STRN3 / RFU, ADK / Fold change vs veh, ADK / RFU, RASSF2 / Fold change vs veh, RASSF2 / RFU, WIPF1 / Fold change vs veh, WIPF1 / RFU, LARP1B / Fold change vs veh, LARP1B / RFU, RASA1 / Fold change vs veh, RASA1 / RFU, RB1 / Fold change vs veh, RB1 / RFU, PPFIA1 / Fold change vs veh, PPFIA1 / RFU, MAT2A / Fold change vs veh, MAT2A / RFU, CCT5 / Fold change vs veh, CCT5 / RFU, WDR92 / Fold change vs veh, WDR92 / RFU, CUX1 / Fold change vs veh, CUX1 / RFU, TTC7A / Fold change vs veh, TTC7A / RFU, TMEM135 / Fold change vs veh, TMEM135 / RFU, DEPTOR / Fold change vs veh, DEPTOR / RFU, CPM / Fold change vs veh, CPM / RFU, DNAJB6 / Fold change vs veh, DNAJB6 / RFU, CACNA2D3 / Fold change vs veh, CACNA2D3 / RFU, DTX4 / Fold change vs veh, DTX4 / RFU, TFCP2 / Fold change vs veh, TFCP2 / RFU, GMCL1 /// GMCL1P1 / Fold change vs veh, GMCL1 /// GMCL1P1 / RFU, AEBP2 / Fold change vs veh, AEBP2 / RFU, SNHG1 /// SNORD22 /// SNORD25 /// SNORD26 /// SNORD27 /// SNORD28 /// SNORD29 /// SNORD31 / Fold change vs veh, SNHG1 /// SNORD22 /// SNORD25 /// SNORD26 /// SNORD27 /// SNORD28 /// SNORD29 /// SNORD31 / Fold change (Aza/veh), C12orf56 (ProbeSet 11735607_a_at) / Fold change (ACY-1035/veh), C12orf56 (ProbeSet 11735607_a_at) / Fold change (Aza/veh), FGFR1OP (ProbeSet 11751329_s_at) / Fold change (ACY-1035/veh), FGFR1OP (ProbeSet 11751329_s_at) / Fold change (Aza/veh), VPS36 (ProbeSet 11739960_a_at) / Fold change (ACY-1035/veh), VPS36 (ProbeSet 11739960_a_at) / RFU SYPL1 (11715823_x_at) / Fold change /veh SYPL1 (11715823_x_at) / RFU IGFBP7 (11715501_s_at) / Fold change /veh IGFBP7 (11715501_s_at) / RFU REEP3 (11722064_at) / Fold change /veh REEP3 (11722064_at) / RFU IGLL1 (11728026_x_at) / Fold change /veh IGLL1 (11728026_x_at): dose or concentration left out as unconfirmed
# Conditions: ProbeSet 11759094_a_at; LIST D
compound,measurement,value
Nc1ccc(-c2cccs2)cc1NC(=O)c1ccc2c(c1)cc(C1CC1)n2CCN1CCOCC1 [ACY-1035],"RFU, GNAQ",492.28 RFU
